Experimental findings from ChEMBL document CHEMBL5104155, “Novel etodolac derivatives as eukaryotic elongation factor 2 kinase (eEF2K) inhibitors for targeted cancer therapy” (RSC Med Chem, 2022) are described below.

Activity calls are given as the source filed them. No cut-off for these calls is given here.

What all share (type): cell-based
Assay [1] deals with T1, Eukaryotic elongation factor 2 kinase (Homo sapiens) (UniProt O00418).
T1 sequence (whole entry): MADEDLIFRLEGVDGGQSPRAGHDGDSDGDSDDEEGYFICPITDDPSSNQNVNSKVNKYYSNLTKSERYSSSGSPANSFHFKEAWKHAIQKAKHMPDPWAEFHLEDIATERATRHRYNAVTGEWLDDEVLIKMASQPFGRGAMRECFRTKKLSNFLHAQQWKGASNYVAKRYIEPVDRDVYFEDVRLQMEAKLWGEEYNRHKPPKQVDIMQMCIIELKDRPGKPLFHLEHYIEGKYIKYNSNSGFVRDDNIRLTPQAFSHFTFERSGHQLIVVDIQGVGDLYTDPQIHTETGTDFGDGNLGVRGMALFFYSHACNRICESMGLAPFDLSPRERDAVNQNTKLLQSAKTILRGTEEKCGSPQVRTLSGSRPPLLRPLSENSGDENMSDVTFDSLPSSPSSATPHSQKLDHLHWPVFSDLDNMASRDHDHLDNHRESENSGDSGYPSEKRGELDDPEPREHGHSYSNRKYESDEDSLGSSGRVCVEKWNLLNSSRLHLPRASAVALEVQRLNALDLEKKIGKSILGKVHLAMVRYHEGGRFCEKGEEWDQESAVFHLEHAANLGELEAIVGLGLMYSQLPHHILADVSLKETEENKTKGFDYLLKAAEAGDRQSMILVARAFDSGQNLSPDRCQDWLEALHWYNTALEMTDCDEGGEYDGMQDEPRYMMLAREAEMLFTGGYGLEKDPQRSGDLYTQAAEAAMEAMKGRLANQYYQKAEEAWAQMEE
Put plainly: Inhibition of eEF2K in human MDA-MB-231 cells assessed as decrease in phosphorylation of eEF2 at Thr56 residue at 5 uM incubated for 2 hrs by western blot analysis. On the technique in general: A western blot detects proteins with antibodies after separation by electrophoresis.

The target of assay [2] is T1, Eukaryotic elongation factor 2 kinase (Homo sapiens). The assay is described as follows: Inhibition of eEF2K in human MDA-MB-231 cells assessed as decrease in phosphorylation of eEF2 at Thr56 residue at 2.5 uM incubated for 2 hrs by western blot analysis.
For assay [3] the target is unchanged. The assay is described as follows: Inhibition of eEF2K in human MDA-MB-231 cells assessed as decrease in phosphorylation of eEF2 at Thr56 residue at 20 uM incubated for 2 hrs by western blot analysis.

For the compound `CCc1cccc2c3c([nH]c12)C(CC)(CC(=O)N1CCN(C)CC1)OCC3` (stereo not given), the inhibition entry in assay [1] and in assay [2] was “Active” in each case.
Turning to `CCc1cccc2c3c([nH]c12)C(CC)(CC(=O)NCCN1CCCCC1)OCC3` (stereo not given), the inhibition result in assay [1] and in assay [2] was “Active” throughout.
As to `CCc1cccc2c3c([nH]c12)C(CC)(CC(=O)N1CCCCC1)OCC3` (stereo not given), in assay [3], the inhibition result was “Active”.
